Source: ChEMBL document CHEMBL1134056, “Diaryl ether inhibitors of farnesyl-protein transferase” (Bioorg Med Chem Lett, 2001)

How the values were obtained:
[1] = target: Protein farnesyltransferase (Homo sapiens, UniProt P49354+P49356); assay: Inhibition of rate of incorporation of [3H]FPP into recombinant Ras-CVIM by human farnesyltransferase.; assay type: protein-complex assay
[2] = target: Geranylgeranyl transferase type I (Homo sapiens, UniProt P49354+P53609); assay: Inhibition of rate of incorporation of [3H]GGPP into a biotinylated peptide corresponding to C-terminus of human Ki-Ras by human geranylgeranyl-transferase type I.; assay type: protein-complex assay
[3] = target: Protein farnesyltransferase (Rattus norvegicus, UniProt Q02293+Q04631); assay: Displacement of radiolabeled FTI from Farnesyltransferase in cultured v-Ha-ras-transformed RAT1 cells; assay type: functional, cell-based

IC50 [1]	IC50 [2]	IC50 [3]	Structure (SMILES)
27 nM	2600 nM		C#Cc1cccc(Oc2cc(Cn3ccnc3)ccc2C#N)c1
41 nM	1100 nM		N#Cc1ccc(Cn2ccnc2)cc1Oc1ccccc1Cl
5400 nM	8800 nM		N#Cc1ccc(Cn2ccnc2)cc1S(=O)(=O)c1ccc(Cl)cc1Cl
8 nM	280 nM	260 nM	N#Cc1ccc(Cn2ccnc2)cc1Oc1ccc(Cl)cc1Cl
475 nM			Cc1ncn(Cc2ccc(C#N)cc2)c1CN1CC(=O)N(c2cccc(Cl)c2)CC1CCS(C)(=O)=O (stereo not drawn)
13 nM	840 nM		N#Cc1ccc(Cn2ccnc2)cc1Oc1cccc(C(=O)c2ccccc2)c1
860 nM	7000 nM		N#Cc1ccc(Cn2ccnc2)cc1OCCc1ccccc1
86 nM	12000 nM		N#Cc1ccc(Cn2ccnc2)cc1OCCc1ccc(-c2ccccc2)cc1
200 nM	3100 nM		N#Cc1ccc(Cn2ccnc2)cc1OCCCc1ccccc1
< 1 nM	23 nM	96 nM	N#Cc1ccc(Cn2ccnc2)cc1Sc1ccc(Cl)cc1Cl
27 nM	520 nM		CC(C)(C)c1cccc(Oc2cc(Cn3ccnc3)ccc2C#N)c1
110 nM	740 nM		N#Cc1ccc(Cn2ccnc2)cc1Oc1ccccc1-c1ccccc1
440 nM	380 nM		N#Cc1ccc(Cn2ccnc2)cc1OCCCCc1ccccc1
9.6 nM	520 nM		N#Cc1ccc(Cn2ccnc2)cc1Oc1cccc(-c2ccccc2)c1
40 nM	3500 nM		COc1cccc(Oc2cc(Cn3ccnc3)ccc2C#N)c1
53 nM	3200 nM		N#Cc1ccc(Cn2ccnc2)cc1Oc1cccc(Cl)c1
100 nM	18000 nM		COc1ccc(OC)c(Oc2cc(Cn3ccnc3)ccc2C#N)c1
1.1 nM	520 nM		N#Cc1ccc(Cn2ccnc2)cc1Oc1ccc2ccccc2c1
130 nM	16000 nM		N#Cc1cccc(Oc2cc(Cn3ccnc3)ccc2C#N)c1

IC50 [1]	IC50 [2]	IC50 [3]	Structure (SMILES)
38 nM	2900 nM		N#Cc1ccc(Cn2ccnc2)cc1Oc1cccc(Br)c1
1 nM	15000 nM	14 nM	COc1cccc(Oc2cc(Cn3ccnc3)ccc2C#N)c1OC
230 nM	600 nM		N#Cc1ccc(Cn2ccnc2)cc1Oc1cccc(Cc2ccccc2)c1
45 nM	6100 nM		CC(=O)c1cccc(Oc2cc(Cn3ccnc3)ccc2C#N)c1
38 nM	3300 nM		N#Cc1ccc(Cn2ccnc2)cc1Oc1cccc(C(=O)Nc2ccccc2)c1
28 nM	1200 nM		N#Cc1ccc(Cn2ccnc2)cc1Oc1ccc(Cl)c(Cl)c1
38 nM	920 nM		N#Cc1ccc(Cn2ccnc2)cc1Oc1ccc(Cl)cc1
340 nM	28000 nM		COc1ccccc1Oc1cc(Cn2ccnc2)ccc1C#N
230 nM	3700 nM		N#Cc1ccc(Cn2ccnc2)cc1Oc1ccccc1
17 nM	630 nM		N#Cc1ccc(Cn2ccnc2)cc1Oc1cccc(Nc2ccccc2)c1
150 nM	3200 nM		N#Cc1ccc(Cn2ccnc2)cc1Oc1cccc2ccccc12
290 nM	3500 nM		COc1ccc(Oc2cc(Cn3ccnc3)ccc2C#N)cc1
	1300 nM		N#Cc1ccc(Cn2ccnc2)cc1Oc1ccc(-c2ccccc2)cc1
390 nM	2000 nM		N#Cc1ccc(Cn2ccnc2)cc1[S+]([O-])c1ccc(Cl)cc1Cl (stereo not drawn)
180 nM	4400 nM		N#Cc1ccc(Cn2ccnc2)cc1Oc1cccc(F)c1
14 nM	280 nM		N#Cc1ccc(Cn2ccnc2)cc1Oc1cccc(Oc2ccccc2)c1
2.9 nM	7.1 nM	4.9 nM	CCC1(c2cccc(Oc3cc(Cn4ccnc4)ccc3C#N)c2)CCCCN(C)C1=O (stereo not drawn)
1500 nM	6800 nM		N#Cc1ccc(Cn2ccnc2)cc1OCc1ccccc1
38 nM	2000 nM		N#Cc1ccc(Cn2ccnc2)cc1Oc1cccc(NC(=O)c2ccccc2)c1
